Usually IC50 stands for the midpoint of a concentration-inhibition curve. Read a low IC50 as inhibition by little substance.

We go through two compounds from US10800730B2, “Complex and structurally diverse compounds” (The Board of Trustees of the University of Illinois, priority 2012, dated 2020).

For one experiment, the system named is U-937 (lymphoma). Description: 72-hour IC50 toward U-937 cancer cell line. As to conditions: Homo sapiens. In kind it is cell-based. The source says: (§1) Compounds prepared according to the methods described herein have been screened for activity against various cancer cell lines.
The next experiment concerns HeLa (cervical). The experiment can be described thus: 72-hour IC50 toward HeLa cancer cell line. In kind it is cell-based. As to conditions: Homo sapiens.
Excerpt: as §1

Another experiment concerns H1299 (NSC lung). The experiment can be described thus: 72-hour IC50 toward H1299 cancer cell line. Format: cell-based. The conditions noted are these: Homo sapiens, NCI-H1299.
Excerpt: as §1

In another experiment the test system is MCF7 (breast). The experiment can be described thus: 72-hour IC50 toward MCF7 cancer cell line. Format: cell-based. The conditions noted are these: Homo sapiens.
Excerpt: as §1

The subject of a further experiment is B16F10 (melanoma). Description: 72-hour IC50 toward B16F10 cancer cell line. Format: cell-based. The conditions noted are these: Mus musculus, B16-F10.
Excerpt: as §1

For the next experiment, the system named is EL-4 (lymphoma). The experiment can be described thus: 72-hour IC50 toward EL-4 cancer cell line. Format: cell-based.
Excerpt: as §1

Another experiment concerns A549 (lung). Description: 72-hour IC50 toward A549 cancer cell line. In kind it is cell-based. The conditions noted are these: Homo sapiens.
Excerpt: as §1

In a further experiment the test system is caspase. Description: Western blot for caspase activation. In kind it is cell-based. The conditions noted are these: Western blot (FIG. 11).
The subject of experiment [1] is EL-4 syngeneic mouse model. Description: Tumor volume in EL-4 syngeneic mouse model. Format: in vivo. As to conditions: 2 treatments at 30 mg/kg over one week and a final treatment at 20 mg/kg after the first week, p=0.023, n=8.
In a further experiment the test system is U-937 cells. Description: Non-apoptotic cell death of U-937 cells. In kind it is cell-based. As to conditions: U-937 cells (FIG. 12). From the text:
FIG. 12. Non-apoptotic cell death of U-937 cells by compound GA-4.

On to `C=C1C[C@]23C[C@@]1(O)CC[C@H]2[C@@]12C=CC(=O)C(C)(C(=O)O1)[C@H]2[C@@H]3C(=O)OC` [GA-4], for which the IC50 was found to be 0.56 ± 0.18 µM in the experiment on U-937 (lymphoma); 1.14 ± 0.03 µM in the experiment on HeLa (cervical); 2.4 ± 0.8 µM in the experiment with H1299 (NSC lung); 4.8 ± 1.3 µM in the experiment on MCF7 (breast); 1 ± 0.4 µM with B16F10 (melanoma); 0.85 ± 0.09 µM with EL-4 (lymphoma). In addition, the IC50 with A549 (lung) came to 5.9 ± 0.05 µM. In addition, in the experiment on caspase, the caspase activation entry is “lack of caspase activation”. Moreover, the “reduction in tumor volume” value in experiment [1] stood at 43%. Besides, the non-apoptotic cell death entry with U-937 cells was “remarkable amounts of non-apoptotic cell death”.
`COC(=O)[C@H]1[C@@H]2C3(C)C(=O)C=C[C@@]2(OC3=O)[C@@H]2CC[C@@]3(CBr)C[C@]21CC3=O` [GA-81]: the values for the IC50 in the experiment on U-937 (lymphoma), with HeLa (cervical) and in the experiment with A549 (lung) were 1.78 ± 0.09 µM, 4.9 ± 0.09 µM and 4.5 ± 0.09 µM, respectively.
